Laboratory results published in PubChem BioAssay AID330 (DTP/NCI, 2004).
Values joined by “and” are separate entries in the source; they are usually repeats but may differ in a detail not shown here. Equal values may be shown once. Toxic doses and inconclusive results are not listed. Rule for the calls: active = survival T/C of 150% or more; inactive = T/C below 125% in these data.

Tested on: P388 leukemia ip, CD2F1 mice, survival T/C
Assay: NCI In Vivo Anticancer Drug Screen. Data for tumor model P388 Leukemia (intraperitoneal) in CD2F1 (CDF1) mice
Settings: endpoint: median survival time, higher = longer survival
Summary of the method: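 Mice carrying the transplanted tumor received test compound or vehicle. Survival was recorded in each group, and the value is the treated-group measurement divided by that of the vehicle-treated control group.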

[1] = dose: 1.56 mg/kg/injection, schedule: Q01DX009 (ip), vehicle: Klucel (hydroxypropylcellulose) (HPC)
[2] = dose: 3.13 mg/kg/injection, schedule: Q01DX009 (ip), vehicle: Klucel (hydroxypropylcellulose) (HPC)
[3] = dose: 6.25 mg/kg/injection, schedule: Q01DX009 (ip), vehicle: Klucel (hydroxypropylcellulose) (HPC)
[4] = dose: 12.5 mg/kg/injection, schedule: Q01DX009 (ip), vehicle: Klucel (hydroxypropylcellulose) (HPC)
[5] = dose: 25.0 mg/kg/injection, schedule: Q01DX009 (ip), vehicle: Klucel (hydroxypropylcellulose) (HPC)
[6] = dose: 12.5 mg/kg/injection, schedule: Q01DX009 (ip), vehicle: saline with Tween-80
[7] = dose: 25.0 mg/kg/injection, schedule: Q01DX009 (ip), vehicle: saline with Tween-80
[8] = dose: 50.0 mg/kg/injection, schedule: Q01DX009 (ip), vehicle: Klucel (hydroxypropylcellulose) (HPC)
[9] = dose: 50.0 mg/kg/injection, schedule: Q01DX009 (ip), vehicle: saline with Tween-80
[10] = dose: 100.0 mg/kg/injection, schedule: Q01DX009 (ip), vehicle: Klucel (hydroxypropylcellulose) (HPC)
[11] = dose: 100.0 mg/kg/injection, schedule: Q01DX009 (ip), vehicle: saline with Tween-80
[12] = dose: 50.0 mg/kg/injection, schedule: Q01DX005 (ip), vehicle: saline with Tween-80
[13] = dose: 100.0 mg/kg/injection, schedule: Q01DX005 (ip), vehicle: saline with Tween-80
[14] = dose: 200.0 mg/kg/injection, schedule: Q01DX005 (ip), vehicle: saline with Tween-80
[15] = dose: 60.0 mg/kg/injection, schedule: Q01DX005 (ip), vehicle: saline with Tween-80
[16] = dose: 120.0 mg/kg/injection, schedule: Q01DX005 (ip), vehicle: saline with Tween-80
[17] = dose: 240.0 mg/kg/injection, schedule: Q01DX005 (ip), vehicle: saline with Tween-80
[18] = dose: 200.0 mg/kg/injection, schedule: Q01DX009 (ip), vehicle: saline with Tween-80
[19] = dose: 400.0 mg/kg/injection, schedule: Q01DX009 (ip), vehicle: saline with Tween-80

Measured: T/C

Cc1cn(C2CC(O)C(Cn3ccc4ccccc43)O2)c(=O)[nH]c1=O (stereo unspecified)
inactive: [1] 103 % of control | [2] 99 % of control | [3] 99 % of control | [4] 99 % of control | [5] 97 % of control

C=C(C)C1CNC(C(=O)O)C1CC(=O)O (stereo unspecified)
inactive: dose: 6.25 mg/kg/injection, schedule: Q01DX009 (ip), vehicle: saline sonified 105 % of control | dose: 12.5 mg/kg/injection, schedule: Q01DX009 (ip), vehicle: saline sonified 90 % of control | dose: 25.0 mg/kg/injection, schedule: Q01DX009 (ip), vehicle: saline sonified 100 % of control

Cn1cccc/c1=N\N
inactive: dose: 100.0 mg/kg/injection, schedule: Q04DX002 (ip), vehicle: saline 100 % of control | dose: 200.0 mg/kg/injection, schedule: Q04DX002 (ip), vehicle: saline 99 % of control

CC(NC(=O)OCc1ccccc1)C(=O)NC1C(O)OC(CO)C(O)C1O (stereo unspecified)
inactive: dose: 12.5 mg/kg/injection, schedule: Q01DX009 (ip), vehicle: other 96 % of control | dose: 25.0 mg/kg/injection, schedule: Q01DX009 (ip), vehicle: other 100 % of control | dose: 25.0 mg/kg/injection, schedule: Q01DX009 (ip), vehicle: water 104 % of control | dose: 50.0 mg/kg/injection, schedule: Q01DX009 (ip), vehicle: water 93 % of control | dose: 100.0 mg/kg/injection, schedule: Q01DX009 (ip), vehicle: water 106 % of control | dose: 200.0 mg/kg/injection, schedule: Q01DX009 (ip), vehicle: water 102 % of control

C=C(C)/C=N/O
inactive: dose: 50.0 mg/kg/injection, schedule: Q01DX005 (ip), vehicle: Klucel (hydroxypropylcellulose) (HPC) 113 % of control | dose: 100.0 mg/kg/injection, schedule: Q01DX005 (ip), vehicle: Klucel (hydroxypropylcellulose) (HPC) 104 % of control | dose: 200.0 mg/kg/injection, schedule: Q01DX005 (ip), vehicle: Klucel (hydroxypropylcellulose) (HPC) 106 % of control

C1CCNCC1.O=C([CH-]C(=O)C(F)(F)F)c1cccs1.O=C([CH-]C(=O)C(F)(F)F)c1cccs1.O=C([CH-]C(=O)C(F)(F)F)c1cccs1.O=C([CH-]C(=O)C(F)(F)F)c1cccs1.[Eu+3]
inactive: [6] 95 % of control | [5] 105 % of control | [7] 95 % of control | [8] 109 % of control | [9] 99 % of control | [10] 109 % of control | [11] 89 % of control

ClC1=C(Cl)C2(Cl)C=CC1(Cl)C2
inactive: [12] 106 % of control | [13] 106 % of control | [14] 108 % of control

COCC(=O)O
inactive: dose: 50.0 mg/kg/injection, schedule: Q01DX009 (ip), vehicle: saline 96 % of control | dose: 100.0 mg/kg/injection, schedule: Q01DX009 (ip), vehicle: saline 93 % of control

CC(=O)Nc1ccc2nc(/C=C/c3ccc(N(C)C)cc3)c(=O)oc2c1
inactive: [15] 102 % of control | [16] 96 % of control | [17] 91 % of control

NC(=S)c1cccc(C=O)n1
inactive: [7] 99 % of control | [9] 99 % of control | dose: 50.0 mg/kg/injection, schedule: Q04DX003 (ip), vehicle: Klucel (hydroxypropylcellulose) (HPC) 110 % of control | [11] 97 % of control | dose: 100.0 mg/kg/injection, schedule: Q04DX003 (ip), vehicle: Klucel (hydroxypropylcellulose) (HPC) 112 % of control | dose: 200.0 mg/kg/injection, schedule: Q04DX003 (ip), vehicle: Klucel (hydroxypropylcellulose) (HPC) 114 % of control

N=C(N)SCCCCCCCCCCSC(=N)N
inactive: [6] 100 % of control and 90 % of control | [7] 98 % of control and 100 % of control | [9] 106 % of control

CC(=O)n1ccc(=O)[nH]c1=O
inactive: [9] 87 % of control | [11] 96 % of control | dose: 100.0 mg/kg/injection, schedule: Q04DX003 (ip), vehicle: saline with Tween-80 100 % of control | [18] 96 % of control | dose: 200.0 mg/kg/injection, schedule: Q04DX003 (ip), vehicle: saline with Tween-80 96 % of control | dose: 400.0 mg/kg/injection, schedule: Q04DX003 (ip), vehicle: saline with Tween-80 96 % of control

Clc1ccc2nc(Cl)c3ccccc3c2c1
inactive: dose: 0.78 mg/kg/injection, schedule: Q01DX009 (ip), vehicle: Klucel (hydroxypropylcellulose) (HPC) 88 % of control and 93 % of control | [1] 87 % of control and 94 % of control | [2] 94 % of control | [3] 120 % of control and 89 % of control and 95 % of control | [5] 89 % of control | [8] 87 % of control

CN(C)S(=O)(=O)c1ncnc2nc[nH]c12
inactive: [11] 90 % of control | dose: 100.0 mg/kg/injection, schedule: Q04DX003 (ip), vehicle: saline sonified 100 % of control | [18] 90 % of control | dose: 200.0 mg/kg/injection, schedule: Q04DX003 (ip), vehicle: saline sonified 91 % of control | [19] 100 % of control | dose: 400.0 mg/kg/injection, schedule: Q04DX003 (ip), vehicle: saline sonified 91 % of control

CCCCOC1=NC2C(=O)NCC2CO1 (stereo unspecified)
inactive: [12] 97 % of control | [13] 94 % of control | [14] 97 % of control

Cc1nc(N(C)C)oc(=O)c1CCc1ccccc1
inactive: [15] 102 % of control | [16] 102 % of control | [17] 100 % of control

CC12OC1C(=O)C=CC2=O (stereo unspecified)
inactive: dose: 5.0 mg/kg/injection, schedule: Q04DX002 (ip), vehicle: saline with Tween-80 111 % of control

CCCCCCCCCOCC(COP(=O)([O-])OCC[N+](C)(C)C)OC (stereo unspecified)
inactive: dose: 50.0 mg/kg/injection, schedule: Q01DX005 (ip), vehicle: saline 99 % of control | dose: 100.0 mg/kg/injection, schedule: Q01DX005 (ip), vehicle: saline 103 % of control

C[N+](C)(C)C.O=C([CH-]C(=O)C(F)(F)F)c1ccccc1.O=C([CH-]C(=O)C(F)(F)F)c1ccccc1.O=C([CH-]C(=O)C(F)(F)F)c1ccccc1.O=C([CH-]C(=O)C(F)(F)F)c1ccccc1.[Eu+3]
inactive: [5] 99 % of control | [8] 106 % of control and 113 % of control | [9] 103 % of control | [10] 112 % of control and 117 % of control | [11] 99 % of control | dose: 200.0 mg/kg/injection, schedule: Q01DX009 (ip), vehicle: Klucel (hydroxypropylcellulose) (HPC) 113 % of control

CSC(=S)SC(SC)S(C)(=O)=O (stereo unspecified)
inactive: dose: 3.12 mg/kg/injection, schedule: Q01DX009 (ip), vehicle: Klucel (hydroxypropylcellulose) (HPC) 103 % of control | [3] 112 % of control | [4] 110 % of control and 117 % of control | [5] 93 % of control

CC1=CC(C)(C)NC(=S)N1c1cccc(Cl)c1
inactive: dose: 3.12 mg/kg/injection, schedule: Q01DX009 (ip), vehicle: saline with Tween-80 107 % of control and 118 % of control | dose: 6.25 mg/kg/injection, schedule: Q01DX009 (ip), vehicle: saline with Tween-80 111 % of control and 114 % of control | [6] 101 % of control and 118 % of control | [11] 93 % of control | [18] 90 % of control | [19] 90 % of control
